Legend:
clinical = settings: human, in vivo, po, Median t max (range)
Source text: The first trial was a nonrandomized, open-label, one-period design. The second trial was a randomized, open-label, three-arm, three-period design (Fig 1). With respect to inclusion criteria, the studies included healthy Japanese adults between 20 and 45 years of age with a body mass index between 18 and 25 who were willing and able to comply with the study requirements. Exclusion criteria for this study included a history of significant liver, heart, or vessel disease and consumption of supplements that contained any rikkunshito ingredients or any drug within 3 days to 1 week before the first dose. Other standard exclusion criteria included relevant allergies, pregnant or nursing females, and any alcohol or nicotine use. The sample size was set as more than 15 based on the Ministry of Health, Labour and Welfare’s guidelines. Subjects allocated to a screening test were randomized to one of three groups by the central allocation system (allocation ratio 1:1:1). A random sequence was generated using a computer. The safety endpoint was evaluated in all volunteers. This endpoint was defined on the basis of a physician’s judgement after examination or observation that a serious adverse event had occurred. Adverse events included death, a life-threatening event, an event requiring hospitalization for treatment or an extended stay in hospital, an event resulting in permanent or temporary disability or dysfunction, an event resulting in a congenital abnormality, or any other serious medical phenomenon. With respect to side effects, no specific conditions were defined, and all adverse events for which no causal relationship with the drug could be excluded were deemed to be side effects. In each stage during the 48-h period following rikkunshito administration, the physician monitored the patient for subjective symptoms, objective findings, swelling, body temperature (axillary), blood pressure (sitting), and pulse (sitting). The physician also conducted a hematological examination to measure the patient’s red blood cell, leucocyte and platelet counts, hemoglobin level, and hematocrit value. A biochemical examination was conducted to determine total protein, blood urea nitrogen, creatinine, uric acid, aspartate aminotransferase, alanine aminotransferase, total bilirubin, alkaline phosphatase, γ-glutamyltranspeptidase albumin, prothrombin time, total cholesterol, C-reactive protein, and potassium to identify any abnormalities in comparison with the subject’s condition prior to administration. All participants fasted for 12 h before administration and 4 h after administration of the study drug.
In the second quantitative trial, 12-mL blood samples were collected at 0 (preadministration), 0.25, 0.5, 1, 2, 3, 4, 6, 8, 10, 12, 24, and 48 h after a single oral administration of rikkunshito (Lot H05142). A total of 3 daily doses were used in this trial, i.e., the clinical dose per administration (2.5 g) as the lowest dose, the clinical daily dose (7.5 g) as the highest dose, and an intermediate dose (5.0 g), to broadly discuss the pharmacokinetic characteristics of the ingredients measured. The trial participants were hospitalized overnight on the day they ingested rikkunshito, and returned home the following day after blood samples were collected at the 24-h time point. The participants returned to the hospital to provide blood samples at 48 h. The blood was immediately centrifuged at 1700 ×g for 15 min to obtain plasma. Plasma fractions were stored at −20°C or lower until analysis.
Plasma, urine, and rikkunshito formulation samples were analyzed for rikkunshito ingredients concentrations using a liquid chromatography–mass spectrometry with tandem mass spectrometer assay (LC–MS/MS; API5000, Triple Quad 6500, or QTRAP5500; AB Sciex, Tokyo, Japan) or gas chromatography–mass spectrometry. Further information of analytical methods can be found at S1 Appendix.

[1] = Method validation: stability in blood; settings: 4 pg/mL
[2] = Method validation: long-term stability in plasma; settings: 160 pg/mL
[3] = Method validation: freeze-thaw stability in plasma; settings: 160 pg/mL, deep freezer (−30°C to −10°C), after 3 cycles of freeze-thaw
[4] = Method validation: post-preparative stability (autosampler)
[5] = Method validation: stability in standard, stock and working solution; settings: 0.1 mg/mL
[6] = Exploratory trial: plasma concentration of rikkunshito ingredients after single oral rikkunshito 7.5 g; type: in vivo; settings: mean ± S.D., n = 4
Description: A random sequence was generated using a computer. The safety endpoint was evaluated in all volunteers.
(§1) In the first exploratory trial, 20-mL blood samples were collected from the cutaneous vein in the subjects’ forearm via a blood sampling tube that contained heparin at 0 (preadministration), 0.5, 1, 2, 4, and 8 h after a single oral administration of rikkunshito (Lot E24652). The dose of rikkunshito used in this trial was 7.5 g/day, which is the clinical daily dose, to widely explore rikkunshito-derived ingredients that enter the blood. Along with plasma, urine samples were collected at three points: between dinner and bedtime (preadministration), between 0 and 4 h after administration, and between 4 and 8 h after administration. The blood was immediately centrifuged at 1700 ×g for 10 min to obtain plasma. Plasma and urine fractions were stored at −80°C or lower until analysis.
(§2) For quantification of synephrine, 5 µL of standard solution or methanol was added to 100 µL plasma or urine samples followed by mixing. Ten microliters of erythromycin [internal standard (IS)] solution was added to the solutions followed by mixing and centrifugation (20,400 ×g, 5 min, 4°C). The supernatants were loaded onto an Ostro 96-well plate (Waters) and centrifuged (1500 ×g, 3 min, 4°C) followed by injection into the LC–MS/MS.
(§3) For quantification of 30 ingredients other than atractylodin and synephrine, 25 µL of standard solution or methanol was added to 500 µL plasma or urine samples followed by mixing. Atractylenolide III or digoxin (IS) solution (50 μL) was added to the solutions followed by mixing. For urine, 400 µL of blank plasma was added to the solutions. Ammonium acetate solution (100 mM, 100 or 400 µL) was added to the solutions followed by mixing. For enzymatic treatment, plasma and urine samples were incubated with β-glucuronidase (100 units in 100 mM ammonium acetate) for 2 h at 37°C. A solid-phase cartridge (OASIS HLB, 30 mg/1cc, Waters) was conditioned with methanol and 10 mM ammonium acetate solution, and the samples were loaded onto the cartridge. The cartridge was washed water : methanol (9:1, v/v), and 1.5 mL of methanol and 30 µL of propylene glycol were added to the cartridge to elute the analytes. The mixtures were dried at 25°C under a stream of nitrogen gas. Furthermore, 100 μL of 10 mM ammonium acetate : methanol (8:2, v/v) was added to the dried samples followed by mixing and sonication. The solutions were filtered (0.22 µm) and followed by injection into the LC–MS/MS system. […] Those analytical conditions are summarized in S2 Table and S3 Table.

[7] = Exploratory trial: amount of rikkunshito ingredients in urine; type: in vivo, human
Description: as §1, §2, §3

[8] = Stability of ingredients in gastric pH solution (pH 1.2, 37°C); type: physicochemical; settings: pH 1.2
Description: Rikkunshito gradually dissolved in acidic solution (pH 1.2) at 37°C, and the concentration of atractylodin after adding 0.25, 0.5, 1, and 2 h was measured by gas chromatography–mass spectrometry.

[9] = of the ingredient in the formulation; summary table, reference not given; cited from earlier work
[10] = Formation of ingredients derived from rikkunshito in formulation, blood, and urine (S11 Table summary); settings: after rikkunshito administration, per ingredient in the formulation; for Formation of ingredients: form found in Urine: BQL = below the quantification limit

SMILES: O=C1C[C@@H](c2ccc(O)cc2)Oc2cc(O)ccc21 [Liquiritigenin]
- Tmax (clinical): > 3 h
- Stability in blood, RR ([1]; at room temperature for 2 h): 82.0%
- Stability in blood, RR ([1]; on ice for 2 h): 91.6%
- Long-term stability, RR ([2]; freezer (−30°C to −10°C) for 22 days): 92.5%
- Long-term stability, RR ([2]; freezer (−30°C to −10°C) for 31 days): 87.4%
- Long-term stability, RR ([2]; freezer (−30°C to −10°C) for 220 days): 87.9%
- Freeze-thaw stability, RR [3]: 92.5%
- Post-preparative stability, RR ([4]; 4 pg/mL, autosampler set at 4°C for 25 h): 89.2%
- Post-preparative stability, RR ([4]; 4 pg/mL, autosampler set at 4°C for 48 h): 94.1%
- Post-preparative stability, RR ([4]; 160 pg/mL, autosampler set at 4°C for 25 h): 99.3%
- Post-preparative stability, RR ([4]; 160 pg/mL, autosampler set at 4°C for 48 h): 103.4%
- Stock solution stability, RR ([5]; refrigerator (1°C to 8°C) for 54 days): 54 days: 99.6%
- Stock solution stability, RR ([5]; refrigerator (1°C to 8°C) for 129 days): 129 days: 103.5%

SMILES: O=C1C[C@@H](c2ccc(O[C@@H]3O[C@H](CO)[C@@H](O)[C@H](O)[C@H]3O)cc2)Oc2cc(O)ccc21 [Liquiritin]
- Plasma concentration, 0 h ([6]; 0 h (preadministration), single oral rikkunshito 7.5 g): BQL
- Plasma concentration, 0.5 h ([6]; 0.5 h after single oral rikkunshito 7.5 g): 1.02 ± 0.131 ng/mL
- Plasma concentration, 1 h ([6]; 1 h after single oral rikkunshito 7.5 g): 0.841 ± 0.0943 ng/mL
- Plasma concentration, 2 h ([6]; 2 h after single oral rikkunshito 7.5 g): 0.403 ± 0.0913 ng/mL
- Plasma concentration, 4 h ([6]; 4 h after single oral rikkunshito 7.5 g): 0.114 ± 0.0392 ng/mL
- Plasma concentration, 8 h ([6]; 8 h after single oral rikkunshito 7.5 g): BQL
- Amount in urine, Pre ([7]; human, in vivo): 15.7 ± 19.0 ng
- Amount in urine, 4–8 h ([7]; human, in vivo, po): 1900 ± 945 ng
- Stability in gastric pH solution, Quantitative value ([8]; 0.5 h): 1670 ng/mL
- Stability in gastric pH solution, Quantitative value ([8]; 1 h): 1830 ng/mL
- Stability in gastric pH solution, Quantitative value ([8]; 2 h): 1720 ng/mL
- Metabolite by enterobacterium [9]: Liquiritigenin^b
- Formation of ingredients: form found in Blood [10]: Liquiritin Liquiritigenin^c
- Formation of ingredients: form found in Urine [10]: Liquiritin Liquiritigenin^c

SMILES: C[C@@H]1O[C@@H](OC[C@H]2O[C@@H](Oc3cc(O)c4c(c3)O[C@H](c3ccc(O)cc3)CC4=O)[C@H](O)[C@@H](O)[C@@H]2O)[C@H](O)[C@H](O)[C@H]1O [Narirutin]
- Amount in urine, 0–4 h ([7]; 0–4 h after single oral rikkunshito 7.5 g, mean ± S.D., n = 4): BQL
- Amount in urine, 4–8 h ([7]; 4–8 h after single oral rikkunshito 7.5 g, mean ± S.D., n = 4): BQL
- Amount in urine, Pre ([7]; preadministration (between dinner and bedtime), mean ± S.D., n = 4): 9.26 ± 18.5 ng
- Stability in gastric pH solution, Quantitative value ([8]; 0.5 h): 1630 ng/mL
- Stability in gastric pH solution, Quantitative value ([8]; 1 h): 1700 ng/mL
- Stability in gastric pH solution, Quantitative value ([8]; 2 h): 1690 ng/mL
- Metabolite by enterobacterium [9]: Naringenin
- Formation of ingredients: form found in Blood [10]: Naringenin Conjugate metabolites of naringenin^a
- Formation of ingredients: form found in Urine [10]: Naringenin

SMILES: CC1(C)[C@@H](O[C@H]2O[C@H](C(=O)O)[C@@H](O)[C@H](O)[C@H]2O[C@@H]2O[C@H](C(=O)O)[C@@H](O)[C@H](O)[C@H]2O)CC[C@]2(C)[C@H]3C(=O)C=C4[C@@H]5C[C@@](C)(C(=O)O)CC[C@]5(C)CC[C@@]4(C)[C@]3(C)CC[C@@H]12 [glycyrrhizic acid]
- Formation of ingredients: form found in Blood [10]: 18β-Glycyrrhetinic acid Glycyrrhetinic acid 3-O-glucuronide
- Formation of ingredients: form found in Urine [10]: 18β-Glycyrrhetinic acid Glycyrrhetinic acid 3-O-glucuronide

SMILES: O=C(/C=C/c1ccc(O[C@@H]2O[C@H](CO)[C@@H](O)[C@H](O)[C@H]2O)cc1)c1ccc(O)cc1O [isoliquiritin]
- Metabolite by enterobacterium [9]: Isoliquiritigenin
- Formation of ingredients: form found in Blood [10]: Isoliquiritigenin Conjugate metabolites of isoliquiritigenin
- Formation of ingredients: form found in Urine [10]: Isoliquiritigenin Conjugate metabolites of isoliquiritigenin

Reference: PMC4506051, “Pharmacokinetic Profiles of Active Ingredients and Its Metabolites Derived from Rikkunshito, a Ghrelin Enhancer, in Healthy Japanese Volunteers: A Cross-Over, Randomized Study” (PLoS ONE, 2015)
